Inhibition data for 28 compounds are collected here from patent US20100137315A1, “Sphingosine Kinase Inhibitors and Methods of Their Use” (APOGEE BIOTECHNOLOGY CORPORATION, priority 2005, published 2010).

Broadly, the inhibition is the percentage by which the read-out fell short of the control.

T1 sequence (Q9NYA1 whole entry): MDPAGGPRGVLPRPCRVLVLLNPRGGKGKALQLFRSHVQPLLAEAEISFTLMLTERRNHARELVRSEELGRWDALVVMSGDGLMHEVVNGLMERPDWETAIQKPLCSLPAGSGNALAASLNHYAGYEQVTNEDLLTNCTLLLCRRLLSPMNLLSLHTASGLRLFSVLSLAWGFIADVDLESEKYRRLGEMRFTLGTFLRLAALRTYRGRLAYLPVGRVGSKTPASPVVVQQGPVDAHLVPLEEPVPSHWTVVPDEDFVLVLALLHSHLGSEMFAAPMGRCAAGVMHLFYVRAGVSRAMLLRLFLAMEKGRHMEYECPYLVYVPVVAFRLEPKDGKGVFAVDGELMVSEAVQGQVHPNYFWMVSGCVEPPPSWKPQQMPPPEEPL

The assay has as its target T1, recombinant human SK (Homo sapiens, UniProt Q9NYA1).
T1 construct: glutathione-S-transferase (GST) (N); made in house; host or cells: bacteria (pGEX vector)
Description: Inhibition of recombinant human SK, LC/MS/MS assay. In kind it is biochemical. The following applies: 6 μg/ml compound. As for the experimental part: An assay for identifying inhibitors of recombinant human SK has been established (French et al., 2003, Cancer Res 63: 5962). cDNA for human SK was subcloned into a pGEX bacterial expression vector, which results in expression of the enzyme as a fusion protein with glutathione-S-transferase, and the fusion protein is then purified on a column of immobilized glutathione. SK activity is measured by incubation of the recombinant SK with [^3H]sphingosine and 1 mM ATP under defined conditions, followed by extraction of the assay mixture with chloroform:methanol under basic conditions. […] Radioactivity in aliquots of the aqueous phase is then quantified as a measure of [^3H]S1P formation. There is a low background level of partitioning of [^3H]sphingosine into the aqueous phase, and addition of the recombinant SK greatly increases the formation of [^3H]S1P.
In an alternate assay procedure, the recombinant human SK was incubated with unlabeled sphingosine and ATP as described above. After 30 minutes, the reactions were terminated by the addition of acetonitrile to directly extract the newly synthesized S1P. The amount of S1P in the samples is then quantified as follows. C17 base D-erythro-sphingosine and C17 S1P are used as internal standards for sphingosine and S1P, respectively. These seventeen-carbon fatty acid-linked sphingolipids are not naturally produced, making these analogs excellent standards. The lipids are then fractionation by High-Performance Liquid Chromatography using a C8-reverse phase column eluted with 1 mM methanolic ammonium formate/2 mM aqueous ammonium formate. A Finnigan LCQ Classic LC-MS/MS is used in the multiple reaction monitoring positive ionization mode to acquire ions at m/z of 300 (precursor ion)→282 (product ion) for sphingosine and 380→264 for S1P. Calibration curves are generated by plotting the peak area ratios of the synthetic standards for each sphingolipid, and used to determine the normalized amounts of sphingosine and S1P in the samples.
Each Compound of this invention was tested for its ability to inhibit recombinant SK using the LC/MS/MS assay described above. Typically, the Compounds were individually dissolved in dimethylsulfoxide and tested at a final concentration of 6 micrograms/ml.
As to `CCCC(=O)Oc1ccc(C=CC(=O)Nc2nc(-c3ccc(C)cc3)cs2)cc1OC` [Compound 19, Butyric acid 2-methoxy-4-[2-(4-p-tolyl-thiazol-2-ylcarbamoyl)-vinyl]-phenyl ester], the inhibition at 6 µg/mL was determined as 36%.

In the case of `CCCC(=O)Oc1ccc(C=CC(=O)Nc2nc(-c3ccc(Br)cc3)cs2)cc1OC` [Compound 20, Butyric acid 4-{2-[4-(4-bromo-phenyl)-thiazol-2-ylcarbamoyl]-vinyl}-2-methoxy-phenyl ester], the inhibition at 6 µg/mL came out at 6%.

Take `O=C(C=Cc1ccc2c(c1)OCO2)Nc1nc(-c2ccc(Cl)cc2)cs1` [Compound 21, 3-Benzo[1,3]dioxol-5-yl-N-[4-(4-chloro-phenyl)-thiazol-2-yl]-acrylamide]: the inhibition at 6 µg/mL stood at 26%.

`O=C(Cc1ccc2c(c1)OCO2)Nc1nc(-c2ccc(Cl)cc2)cs1` [Compound 22, 2-Benzo[1,3]dioxol-5-yl-N-[4-(4-chloro-phenyl)-thiazol-2-yl]-acetamide]: the inhibition at 6 µg/mL amounted to 34%.

As for `COc1ccc(CCC(=O)Nc2nc(-c3ccc(Cl)cc3)cs2)cc1OC` [Compound 23, N-[4-(4-Chloro-phenyl)-thiazol-2-yl]-3-(3,4-dimethoxy-phenyl)-propionamide], the inhibition at 6 µg/mL stood at 45%.

`CCCC(=O)Oc1ccc(C(=O)Nc2nc(-c3ccc(Cl)cc3)cs2)cc1OC` [Compound 24, Butyric acid 4-[4-(4-chloro-phenyl)-thiazol-2-ylcarbamoyl]-2-methoxy-phenyl ester]: the inhibition at 6 µg/mL was 0%.

Regarding `CCCC(=O)Oc1ccc(C(=O)Nc2nc(-c3ccc(Cl)cc3)cs2)cc1OC(=O)CCC` [Compound 25, Butyric acid 2-butyryloxy-4-[4-(4-chloro-phenyl)-thiazol-2-ylcarbamoyl]-phenyl ester], the inhibition at 6 µg/mL amounted to 0%.

`CCCC(=O)Oc1ccc(CCC(=O)Nc2nc(-c3ccc(Cl)cc3)cs2)cc1OC(=O)CCC` [Compound 26, Butyric acid 2-butyryloxy-4-{2-[4-(4-chloro-phenyl)-thiazol-2-ylcarbamoyl]-ethyl}-phenyl ester]: the inhibition at 6 µg/mL was determined as 0%.

Regarding `CCCC(=O)Oc1ccc(C=CC(=O)Nc2nc(-c3ccc(F)cc3)cs2)cc1OC` [Compound 28, Butyric acid 4-{2-[4-(4-fluoro-phenyl)-thiazol-2-ylcarbamoyl]-vinyl}-2-methoxy-phenyl ester], the inhibition at 6 µg/mL was determined as 87%.

For `CCCC(=O)Oc1ccc(CC(=O)Nc2nc(-c3ccc(Cl)cc3)cs2)cc1N` [Compound 31, Butyric acid 2-amino-4-{[4-(4-chloro-phenyl)-thiazol-2-ylcarbamoyl]-methyl}-phenyl ester], the inhibition at 6 µg/mL was determined as 58%.

Consider `O=C(NCc1cc(F)cc(F)c1)c1nc(-c2ccc(Cl)cc2)cs1` [Compound 36, 4-(4-Chloro-phenyl)-thiazole-2-carboxylic acid 3,5-difluoro-benzylamide], for which the inhibition at 6 µg/mL came to 14%.

For the compound `O=C(NCc1ccc(Cl)c(C(F)(F)F)c1)c1nc(-c2ccc(Cl)cc2)cs1` [Compound 37, 4-(4-Chloro-phenyl)-thiazole-2-carboxylic acid 4-chloro-3-trifluoromethyl-benzylamide], the inhibition at 6 µg/mL stood at 23%.

Turning to `O=C(NCc1ccc(F)cc1Cl)c1nc(-c2ccc(Cl)cc2)cs1` [Compound 38, 4-(4-Chloro-phenyl)-thiazole-2-carboxylic acid 2-chloro-4-fluoro-benzylamide], the inhibition at 6 µg/mL stood at 75%.

For the compound `O=C(NCc1ccc(F)c(Cl)c1)c1nc(-c2ccc(Cl)cc2)cs1` [Compound 39, 4-(4-Chloro-phenyl)-thiazole-2-carboxylic acid 3-chloro-4-fluoro-benzylamide], the inhibition at 6 µg/mL came out at 69%.

For the compound `O=C(NCc1ccc(F)c(F)c1)c1nc(-c2ccc(Cl)cc2)cs1` [Compound 40, 4-(4-Chloro-phenyl)-thiazole-2-carboxylic acid 3,4-difluoro-benzylamide], the inhibition at 6 µg/mL stood at 56%.

With `COc1ccc(CCNC(=O)c2nc(-c3ccc(Cl)cc3)cs2)cc1Br` [Compound 41, 4-(4-Chloro-phenyl)-thiazole-2-carboxylic acid [2-(3-bromo-4-methoxy-phenyl)-ethyl]-amide], the inhibition at 6 µg/mL was found to be 22%.

For the compound `O=C(NCc1cc(F)c(F)c(F)c1)c1nc(-c2ccc(Cl)cc2)cs1` [Compound 42, 4-(4-Chloro-phenyl)-thiazole-2-carboxylic acid 3,4,5-trifluoro-benzylamide], the inhibition at 6 µg/mL was 79%.

For `O=C(NCc1cccc(OC(F)(F)F)c1)c1nc(-c2ccc(Cl)cc2)cs1` [Compound 43, 4-(4-Chloro-phenyl)-thiazole-2-carboxylic acid 3-trifluoromethoxy-benzylamide], the inhibition at 6 µg/mL was determined as 59%.

Turning to `O=C(NCCc1cccc(Oc2ccccc2)c1)c1nc(-c2ccc(Cl)cc2)cs1` [Compound 44, 4-(4-Chloro-phenyl)-thiazole-2-carboxylic acid [2-(3-phenoxy-phenyl)-ethyl]-amide], the inhibition at 6 µg/mL is 69%.

For the compound `CN1CCCC1CCNC(=O)c1nc(-c2ccc(Cl)cc2)cs1` (stereo not shown) [Compound 45, 4-(4-Chloro-phenyl)-thiazole-2-carboxylic acid [2-(1-methyl-pyrrolidin-2-yl)-ethyl]-amide], the inhibition at 6 µg/mL is 42%.

As for `CN1CCN(NC(=O)c2nc(-c3ccc(Cl)cc3)cs2)CC1` [Compound 46, 4-(4-Chloro-phenyl)-thiazole-2-carboxylic Acid (4-methyl-piperazin-1-yl)-amide], the inhibition at 6 µg/mL came to 80%.

Turning to `O=C(CCc1ccc(F)cc1F)Nc1nc(-c2ccc(Cl)cc2)cs1` [Compound 47, N-[4-(4-Chloro-phenyl)-thiazol-2-yl]-3-(2,4-difluoro-phenyl)-propionamide], the inhibition at 6 µg/mL was 21%.

Regarding `CCSCCNC(=O)c1nc(-c2ccc(Cl)cc2)cs1` [Compound 48, 4-(4-Chloro-phenyl)-thiazole-2-carboxylic Acid (2-ethylsulfanyl-ethyl)-amide], the inhibition at 6 µg/mL was 56%.

For `O=C(NCc1ccc(C(F)(F)F)cc1F)c1nc(-c2ccc(Cl)cc2)cs1` [Compound 49, 4-(4-Chloro-phenyl)-thiazole-2-carboxylic Acid 2-fluoro-4-trifluoromethyl-benzylamide], the inhibition at 6 µg/mL turned out to be 67%.

Turning to `O=C(Nc1cc(F)cc(F)c1)c1nc(-c2ccc(Cl)cc2)cs1` [Compound 50, 4-(4-Chloro-phenyl)-thiazole-2-carboxylic Acid (3,5-difluoro-phenyl)-amide], the inhibition at 6 µg/mL worked out at 21%.

For `CSc1ccc(CNC(=O)c2nc(-c3ccc(Cl)cc3)cs2)cc1` [Compound 51, 4-(4-Chloro-phenyl)-thiazole-2-carboxylic Acid 4-methylsulfanyl-benzylamide], the inhibition at 6 µg/mL was found to be 36%.

For `O=C(NCc1ccc(OC(F)(F)F)cc1)c1nc(-c2ccc(Cl)cc2)cs1` [Compound 52, 4-(4-Chloro-phenyl)-thiazole-2-carboxylic Acid 4-trifluoromethoxy-benzylamide], the inhibition at 6 µg/mL amounted to 78%.

In the case of `O=C(NCc1ccc(F)c(C(F)(F)F)c1)c1nc(-c2ccc(Cl)cc2)cs1` [Compound 53, 4-(4-Chloro-phenyl)-thiazole-2-carboxylic Acid 4-fluoro-3-trifluoromethyl-benzylamide], the inhibition at 6 µg/mL came to 44%.
